Experiments:
[1] = system: TGF-β-stimulated SMAD3 phosphorylation in BEAS-2B cells; assay: Cellular ALK5 potency assay, inhibition of TGF-β stimulated pSMAD3 formation in BEAS-2B cells; assay type: cell-based; settings: Homo sapiens; inhibition of TGF-β stimulated pSMAD3 formation, BEAS-2B cells; read-out: BEAS2B pIC50 (converted)
Outline: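 Potency is reported as pIC50, derived from concentration-dependent reduction of pSMAD3 AlphaLISA signal against TGF-β-stimulated cells without compound. BEAS-2B cells received compound for 1 h before a 30-min stimulation with 10 ng/mL TGF-β.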

[2] = target: T1, recombinant human ALK5 (TGF-βR1) protein (Homo sapiens, UniProt P36897); assay: Biochemical ALK5 (TGF-βR1) assay to measure pKi (LANCE Ultra ULight kinase assay); settings: apparent pKi from pIC50 by Cheng-Prusoff, read-out: ALK5 pKi (converted)
T1 construct: purchased Life Technologies PR9075A
T1 sequence (P36897 34-503): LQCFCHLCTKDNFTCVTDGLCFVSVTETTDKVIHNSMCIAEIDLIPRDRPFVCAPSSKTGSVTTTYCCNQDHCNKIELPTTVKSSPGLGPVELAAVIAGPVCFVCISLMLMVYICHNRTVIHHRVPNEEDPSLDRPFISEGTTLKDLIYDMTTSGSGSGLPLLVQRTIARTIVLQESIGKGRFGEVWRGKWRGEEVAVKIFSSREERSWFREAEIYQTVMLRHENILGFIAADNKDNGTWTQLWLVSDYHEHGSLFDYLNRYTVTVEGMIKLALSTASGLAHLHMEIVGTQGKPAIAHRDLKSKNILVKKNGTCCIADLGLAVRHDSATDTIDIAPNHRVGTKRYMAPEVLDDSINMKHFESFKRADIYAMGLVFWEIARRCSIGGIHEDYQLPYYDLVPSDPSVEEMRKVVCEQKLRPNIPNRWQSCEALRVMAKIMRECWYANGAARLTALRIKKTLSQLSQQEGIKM
Outline: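 Dose range 10 μM–25 pM; enzyme + compound 60 min RT; ATP added (5× stock 125 μM, 2 mM DTT); 60 min 37 °C; stop with EDTA + Eu anti-phospho-Topo IIα Thr1342 Ab; TR-FRET ex 320/340, em 665 nm. 4-param pIC50 → pKi (Cheng-Prusoff).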

Compound | IC50 [1] [nM] | Ki [2] [nM]
Cc1cccc(-c2[nH]cnc2-c2ccc3ncc(NC4CC5(CNC5)C4)cc3c2)n1 [Compound 200, N-(2-azaspiro[3.3]heptan-6-yl)-6-[5-(6-methyl-2-pyridyl)-1H-imidazol-4-yl]quinolin-3-amine] | 200 to 1260 | 0.0398 to 0.316
CC(C)N1CCN(CCNc2cnc3ccc(-c4c[nH]nc4-c4cccc(C(F)(F)F)n4)nc3c2)CC1 [Compound 201, N-(2-(4-isopropylpiperazin-1-yl)ethyl)-6-(3-(6-(trifluoromethyl)pyridin-2-yl)-1H-pyrazol-4-yl)-1,5-naphthyridin-3-amine] | 25.1 to 158 | 0.0398 to 0.316
Cc1nc(-c2nc3ccccn3c2-c2ccc3ncc(-c4nnn5c4CNCC5)cc3n2)ccc1F [Compound 202, 2-[2-(5-fluoro-6-methyl-2-pyridyl)imidazo[1,2-a]pyridin-3-yl]-7-(4,5,6,7-tetrahydrotriazolo[1,5-a]pyrazin-3-yl)-1,5-naphthyridine] | 200 to 1260 | 0.0398 to 0.316
Cc1cccc(-c2nn(C3CCCCO3)cc2-c2ccc3ncc(-c4cnoc4)cc3n2)n1 (centres unmarked) [Compound 203, 4-[6-[3-(6-methyl-2-pyridyl)-1-tetrahydropyran-2-yl-pyrazol-4-yl]-1,5-naphthyridin-3-yl]isoxazole] | 200 to 1260 | 0.398 to 3.16
Cc1cccc(-c2n[nH]cc2-c2ccc3ncc(N4CCN[C@@H](C(=O)N(C)C)C4)cc3n2)n1 [Compound 204, (2R)-N,N-dimethyl-4-[6-[3-(6-methyl-2-pyridyl)-1H-pyrazol-4-yl]-1,5-naphthyridin-3-yl]piperazine-2-carboxamide] | 25.1 to 158 | 0.0398 to 0.316
Cc1cccc(-c2n[nH]cc2-c2ccc3ncc(N4CCC(N5CCN(C)CC5)CC4)cc3n2)n1 [Compound 205, 7-[4-(4-methylpiperazin-1-yl)-1-piperidyl]-2-[3-(6-methyl-2-pyridyl)-1H-pyrazol-4-yl]-1,5-naphthyridine] | 25.1 to 158 | 0.0398 to 0.316
Cc1cccc(-c2[nH]cnc2-c2ccc3ncc(N4CCC5(CC4)CNC5)cc3c2)n1 [Compound 206, 3-(2,7-diazaspiro [3.5]nonan-7-yl)-6-[5-(6-methyl-2-pyridyl)-1H-imidazol-4-yl]quinoline] | 25.1 to 158 | 0.0398 to 0.316
Cc1cccc(-c2nc3ccccn3c2-c2ccc3ncc(-c4nnn5c4CNCC5)cc3n2)n1 [Compound 207, 2-[2-(6-methyl-2-pyridyl)imidazo[1,2-a]pyridin-3-yl]-7-(4,5,6,7-tetrahydrotriazolo[1,5-a]pyrazin-3-yl)-1,5-naphthyridine] | 25.1 to 158 | 0.0398 to 0.316
Cc1cccc(-c2[nH]cnc2-c2ccc3ncc(N4CC[C@H](N)C4)cc3c2)n1 [Compound 208, (3S)-1-[6-[5-(6-methyl-2-pyridyl)-1H-imidazol-4-yl]-3-quinolyl]pyrrolidin-3-amine] | < 20 | 0.0398 to 0.316
Cc1nc(-c2n[nH]cc2-c2ccc3ncc(N4CCCNCC4)cc3c2)ccc1F [Compound 209, 3-(1,4-diazepan-1-yl)-6-[3-(5-fluoro-6-methyl-2-pyridyl)-1H-pyrazol-4-yl]quinoline] | 25.1 to 158 | 0.0398 to 0.316
Cc1cccc(-c2[nH]ncc2-c2ccc3ncc(C(=O)O[C@H]4CCNC4)cc3n2)n1 [Compound 210, [(3S)-pyrrolidin-3-yl]6-[5-(6-methyl-2-pyridyl)-1H-pyrazol-4-yl]-1,5-naphthyridine-3-carboxylate] | 25.1 to 158 | 0.398 to 3.16
Cc1cccc(-c2[nH]ncc2-c2ccc3ncc(C(=O)OCC4CCNCC4)cc3n2)n1 [Compound 211, 4-piperidylmethyl 6-[5-(6-methyl-2-pyridyl)-1H-pyrazol-4-yl]-1,5-naphthyridine-3-carboxylate] | 25.1 to 158 | 0.0398 to 0.316
Cc1cccc(-c2n[nH]cc2-c2ccc3ncc(-c4c(C)nn5c4NCCC5)cc3n2)n1 [Compound 212, 2-[3-(6-methyl-2-pyridyl)-1H-pyrazol-4-yl]-7-(2-methyl-4,5,6,7-tetrahydropyrazolo[1,5-a]pyrimidin-3-yl)-1,5-naphthyridine] | 25.1 to 158 | 0.398 to 3.16
Cc1cccc(-c2[nH]cnc2-c2ccc3ncc(N4CCC(C(=O)O)CC4)cc3c2)n1 [Compound 213, 1-(6-(5-(6-methylpyridin-2-yl)-1H-imidazol-4-yl)quinolin-3-yl)piperidine-4-carboxylic acid] | 200 to 1260 | 0.0398 to 0.316
CNCc1cncc(-c2cnc3ccc(-c4c[nH]nc4-c4cccc(C)n4)nc3c2)c1 [Compound 214, N-methyl-1-[5-[6-[3-(6-methyl-2-pyridyl)-1H-pyrazol-4-yl]-1,5-naphthyridin-3-yl]-3-pyridyl]methanamine] | 25.1 to 158 | 0.0398 to 0.316
Cc1cccc(-c2n[nH]cc2-c2ccc3ncc(-c4ccnnc4)cc3n2)n1 [Compound 215, 2-[3-(6-methyl-2-pyridyl)-1H-pyrazol-4-yl]-7-pyridazin-4-yl-1,5-naphthyridine] | < 20 | < 0.0316
Cc1cccc(-c2nnn(Cc3ccccc3)c2-c2ccc3ncc(-c4cnn(C5CCCNC5)c4)cc3n2)n1 (centres unmarked) [Compound 216, 2-(1-benzyl-4-(6-methylpyridin-2-yl)-1H-1,2,3-triazol-5-yl)-7-(1-(piperidin-3-yl)-1H-pyrazol-4-yl)-1,5-naphthyridine] | 25.1 to 158 | 0.0398 to 0.316
Cc1cccc(-c2n[nH]cc2-c2ccc3ncc(CNCCCN4CCN(C(C)C)CC4)cc3n2)n1 [Compound 218, 3-(4-isopropylpiperazin-1-yl)-N-[[6-[3-(6-methyl-2-pyridyl)-1H-pyrazol-4-yl]-1,5-naphthyridin-3-yl]methyl]propan-1-amine] | 200 to 1260 | 0.398 to 3.16
Cc1cccc(-c2n[nH]cc2-c2ccc3ncc(N4CC5CNC5C4)cc3n2)n1 (centres unmarked) [Compound 219, 7-(3,6-diazabicyclo[3.2.0]heptan-3-yl)-2-[3-(6-methyl-2-pyridyl)-1H-pyrazol-4-yl]-1,5-naphthyridine] | 25.1 to 158 | 0.0398 to 0.316
Cc1cccc(-c2n[nH]cc2-c2ccc3ncc(N4C[C@@H]5C[C@H]4CN5)cc3n2)n1 [Compound 220, 7-[(1S,4S)-2,5-diazabicyclo[2.2.1]heptan-2-yl]-2-[3-(6-methyl-2-pyridyl)-1H-pyrazol-4-yl]-1,5-naphthyridine] | 25.1 to 158 | 0.398 to 3.16
Cc1cccc(-c2n[nH]cc2-c2ccc3ncc(-c4cnn(CCN(C)C)c4)cc3n2)n1 [Compound 221, N,N-dimethyl-2-[4-[6-[3-(6-methyl-2-pyridyl)-1H-pyrazol-4-yl]-1,5-naphthyridin-3-yl]pyrazol-1-yl]ethanamine] | 25.1 to 158 | < 0.0316
Cc1cccc(-c2[nH]cnc2-c2ccc3ncc(NCCC4CCCNC4)cc3c2)n1 (centres unmarked) [Compound 222, 6-[5-(6-methyl-2-pyridyl)-1H-imidazol-4-yl]-N-[2-(3-piperidyl)ethyl]quinolin-3-amine] | 25.1 to 158 | 0.0398 to 0.316
Cc1cccc(-c2n[nH]cc2-c2ccc3ncc(N4CCNC5(CCC5)C4)cc3n2)n1 [Compound 223, 7-(5,8-diazaspiro[3.5]nonan-8-yl)-2-[3-(6-methyl-2-pyridyl)-1H-pyrazol-4-yl]-1,5-naphthyridine] | 25.1 to 158 | 0.0398 to 0.316
Cc1cccc(-c2[nH]cnc2-c2ccc3ncc(-c4cccc(C(=O)OC5CCNCC5)c4)cc3c2)n1 [Compound 224, 4-piperidyl 3-[6-[5-(6-methyl-2-pyridyl)-1H-imidazol-4-yl]-3-quinolyl]benzoate] | 25.1 to 158 | 0.0398 to 0.316
Cc1nc(-c2[nH]cnc2-c2ccc3ncc(-c4cnn(CCN)c4)cc3n2)ccc1F [Compound 225, 2-[4-[6-[5-(5-fluoro-6-methyl-2-pyridyl)-1H-imidazol-4-yl]-1,5-naphthyridin-3-yl]pyrazol-1-yl]ethanamine] | 25.1 to 158 | 0.0398 to 0.316
CC(C)N1CCN(CCNc2cnc3ccc(-c4c[nH]nc4-c4cccc(C(F)F)n4)nc3c2)CC1 [Compound 226, 6-[3-[6-(difluoromethyl)-2-pyridyl]-1H-pyrazol-4-yl]-N-[2-(4-isopropylpiperazin-1-yl)ethyl]-1,5-naphthyridin-3-amine] | 25.1 to 158 | 0.0398 to 0.316
Cc1cccc(-c2[nH]cnc2-c2ccc3ncc(Nc4cnn(C5CNC5)c4)cc3c2)n1 [Compound 227, N-[1-(azetidin-3-yl)pyrazol-4-yl]-6-[5-(6-methyl-2-pyridyl)-1H-imidazol-4-yl]quinolin-3-amine] | 200 to 1260 | 0.0398 to 0.316
Cc1cccc(-c2[nH]cnc2-c2ccc3ncc(C4=CCC(NCc5ccccc5)CC4)cc3n2)n1 (centres unmarked) [Compound 228, N-benzyl-4-[6-[5-(6-methyl-2-pyridyl)-1H-imidazol-4-yl]-1,5-naphthyridin-3-yl]cyclohex-3-en-1-amine] | 200 to 1260 | 0.0398 to 0.316

— patent US11590116B2 (THERAVANCE BIOPHARMA R&D IP, LLC, priority 2019, dated 2023)
